Laboratory results reported in patent US20230134782A1, “TREATMENT OF SKIN CONDITIONS USING HIGH KRAFFT TEMPERATURE ANIONIC SURFACTANTS” (ARCUTIS BIOTHERAPEUTICS, INC., priority 2020, published 2023).
Like-named read-outs stand apart in the source and are kept apart here.

How the values were obtained:
[1] = commonly used anionic surfactants; no source or concentration printed; cited from earlier work
[2] = Krafft temperature determination in distilled water (water bath, dissolution and frothing on shaking); format: physicochemical; settings: aqueous solution in distilled water: 0.012% ceteth-10 phosphate, 0.017% dicetyl phosphate, 0.014% sodium cetostearyl sulfate
Experimental: 0.0012 grams of ceteth-10 phosphate (Moravek Lot 671-144-000-A-20190821-JHO) was weighed into a 20 mL glass scintillation vial. 10.0113 grams of distilled water was added to the scintillation vial and the vial was tightly capped and placed in a water bath. […] The surfactant remained as waxy particles sedimented on the bottom of the vial. After equilibration at 53.0° C. for 435 minutes, ceteth-10 phosphate had dissolved and the sample frothed when shaken. The Krafft temperature of a 0.012% ceteth-10 phosphate aqueous solution was determined to be 53.0° C.
0.0019 grams of dicetyl phosphate (Sigma dihexadecyl phosphate lot STBH2863) was weighed into a 20 mL glass scintillation vial. 11.2262 grams of distilled water was added to the scintillation vial and the vial was tightly capped and placed in a water bath. […] After equilibration at 58.0° C. for 450 minutes, dicetyl phosphate had dissolved and the sample frothed when shaken. The Krafft temperature of a 0.017% dicetyl phosphate aqueous solution was determined to be 58.0° C. 0.0024 grams of sodium cetostearyl sulfate (BASF Lanette E Granules Lot 0021826181) was weighed into a 20 mL glass scintillation vial. 17.0763 grams of distilled water was added to the scintillation vial and the vial was tightly capped and placed in a water bath. […] The Krafft temperature of a 0.014% sodium cetostearyl sulfate aqueous solution was determined to be 41.0° C.

Compound | Krafft Temperature [1] | Krafft Temperature [2] | Krafft Temperature ([2]; listed as ceteth-10 phosphate)
CCCCCCCCCCCCOS(=O)(=O)O.N [Ammonium lauryl sulfate] | 10 °C | – | –
CCCCCCCCCCCCCCCCOS(=O)(=O)[O-].[Na+] [Sodium cetyl sulfate] | 45.0 °C | – | –
CCCCCCCCCCOS(=O)(=O)[O-].[Na+] [Sodium decyl sulfate] | 8.0 °C | – | –
CCCCCCCCCCS(=O)(=O)[O-].[Na+] [Sodium decyl sulfonate] | 22.5 °C | – | –
CCCCCCCCCCCCCCCCS(=O)(=O)[O-].[Na+] [Sodium hexadecyl sulfonate] | 57.0 °C | – | –
CCCCCCCCCCCC(=O)[O-].[Na+] [Sodium laurate] | 21.5 °C | – | –
CCCCCCCCCCCCOP(=O)([O-])[O-].[Na+].[Na+] [Sodium lauryl phosphate] | 31.5 °C | – | –
CCCCCCCCCCCCOS(=O)(=O)[O-].[Na+] [Sodium lauryl sulfate] | 16.0 °C | – | –
CCCCCCCCCCCCCC(=O)[O-].[Na+] [Sodium myristate] | 39 °C | – | –
CCCCCCCCCCCCCCOS(=O)(=O)[O-].[Na+] [Sodium myristyl sulfate] | 30.0 °C | – | –
CCCCCCCCCCCCCCS(=O)(=O)[O-].[Na+] [Sodium myristyl sulfonate, Sodium myristyl* sulfonate] | 48.0 °C | – | –
CCCCCCCCCCCCCCCC(=O)[O-].[Na+] [Sodium palmitate] | 69 °C | – | –
CCCCCCCCCCCCCCCCCC(=O)[O-].[Na+] [Sodium stearate] | 71 °C | – | –
CCCCCCCCCCCCCCCCCCOS(=O)(=O)[O-].[Na+] [Sodium stearyl sulfate] | 56.0 °C | – | –
Sodium laureth sulfate | <0 °C | – | –
ceteth-10 phosphate [Ceteth - 10 phosphate] | – | 53 °C | 53 °C
